Data as given in patent EP1275386A1, “SOLID […] IMPROVED ABSORBABILITY” (FUJISAWA PHARMACEUTICAL CO., LTD., priority 2000, dated 2001).

Assays:
[1] = Test on solubility of active component in water (Test Example 1); type: physicochemical; conditions: 15mg equivalent of Active Component 1 in 7.5 mL of water at 37 °C, agitated with a stirrer; dihydrate
Text: Compared was the solubility of the solid dispersions obtained in Examples 2, 3 and 5 (referred to as "Preparation 2," "Preparation 3" and "Preparation 5," respectively, hereinafter) containing as an active ingredient N-(3,4-dimethoxybenzyl)-2-[(trans-4-formamidocyclohexyl)amino]-5-nitrobenzamide dihydrate (referred to as "Active Component 1" hereinafter), the amorphous Active Component 1 obtained in Comparative Example 1 and the crystal Active Component 1 obtained in Production Example 1. The test was performed by adding Preparations 2, 3 and 5, the amorphous Active Component 1 and the crystal Active Component 1 each containing 15mg equivalent of Active Component 1 to 7.5 mL of water heated to 37 °C, agitating the resulting mixtures with a stirrer and measuring the concentration of Active Component 1 in the solutions. The results are shown in Fig. 1, which is a graphical representation showing the change with time of the solubility in water of Preparations 2, 3 and 5, the amorphous Active Component 1 and the crystal Active Component 1. […]

[2] = Test on crystal state of Active Component 1 by DSC, storage at 70 °C for 7 days (Test Example 2); type: physicochemical
Procedure: Preparations 2 and 3 containing Active Component 1 and the amorphous Active Component 1 after being stored at 70 °C for 7 days were tested on the crystal state of Active Component 1 by differential scanning calorimetry (DSC for short hereinafter). […]

Structure (SMILES) | Maximum Concentration Achieved of Active Component 1 in water [1] | D S C analysis results ([2]; After storage at 70 °C for 7 days) | D S C analysis results ([2]; Before storage) | change of crystal state of Active Component 1 ([2]; after being stored at 70 °C for 7 days, DSC)
COc1ccc(CNC(=O)c2cc([N+](=O)[O-])ccc2N[C@H]2CC[C@H](NC=O)CC2)cc1OC.O.O [Amorphous Active Component 1, N-(3,4-dimethoxybenzyl)-2-[(trans-4-formamidocyclohexyl)amino]-5-nitrobenzamide dihydrate] | 8.68 µg/mL | Endothermic peak caused by melting indicative of existence of crystal was recognized. | Endothermic peak caused by melting indicative of existence of crystal was not recognized. | changed from the amorphous state to a crystal state
COc1ccc(CNC(=O)c2cc([N+](=O)[O-])ccc2N[C@H]2CC[C@H](NC=O)CC2)cc1OC.O.O [Crystal Active Component 1, N-(3,4-dimethoxybenzyl)-2-[(trans-4-formamidocyclohexyl)amino]-5-nitrobenzamide dihydrate] | 0.38 µg/mL | – | – | –
